Results on 6 compounds are retold here after US20130189248A1, “EGFR INHIBITOR AND ANTIVIRAL AGENT FOR SIMULTANEOUS, SEPARATE OR SEQUENTIAL USE IN THE TREATMENT AND/OR PREVENTION AND/OR PALLIATION OF CANCER” (priority 2010, published 2013).

Where two headings read alike, the source gives them in different places.

The conditions of series [1]: human, in vivo; cited from earlier work.
Another series relates to herpesvirus polymerases. As to conditions: cited from earlier work.
Series [2] concerns Me180 cells (human HPV-positive cervical carcinoma cells). In words: Clonogenicity test on Me180 cells (with Bliss additivity model). Format: cell-based. The protocol:
(§1) The cell lines are available from the American Type Culture Collection (ATCC): • HeLa cells (human HPV-positive cervical carcinoma cells): ATCC n° CCL-2; • Me180 cells (human HPV-positive cervical carcinoma cells): ATCC n° HTB-33; • C33A cells (human HPV-negative cervical carcinoma cells): ATCC n° HTB-31. • H460 cells (human HPV-negative lung carcinoma cells): ATCC n° HTB-177.
Me180 cells were grown in the GIBCO® McCoy's 5A medium (available from Invitrogen under catalog reference number 26600023), supplemented with 10% FCS, 1% penicillin/streptomycin and 1% glutamine.
(§2) The cell lines were grown in humid incubators at 37° C. under 5% CO2.
(§3) Each of said treatments last the 10-15 days of the clonogenic assay.
(§4) The culture medium has not been replaced during the assay.
(§5) The cultures were stopped by fixing and staining with crystal violet (methanol 80%, formaldehyde 10%, crystal violet 1.25 g), when the clones reached 50 cells. The clones were then counted and related to the number of cells cultured to obtain the fraction of surviving cells.
(§6) The Bliss additivity model was used to classify the effect of the drug combination as synergistic, additive or antagonist.
(§7) A theoretical curve of the expected effect of the combination was calculated from the equation:
(§8) Bliss effect=effect A+effect B−effect A×effect B,
(§9) where effect A and effect B are the effects of drugs A and B alone at specific concentrations.
(§10) Here, the Bliss effect is the expected effect when the combination of the two drugs is exactly additive. If the observed effect (the experimentally measured effect of the combination) is lower than the Bliss effect, the effect of the combination is said to be antagonist (delta=observed effect−Bliss effect is a negative value). If the observed effect is greater than the Bliss effect, the effect of the combination is synergistic (delta is positive).
(§11) The data are expressed as a percentage decrease in cell viability beyond that which would be expected if the association were strictly additive.

The subject of series [3] is C33A cells (human HPV-negative cervical carcinoma cells). Format: cell-based. The protocol:
as §1, §2, §3, §4, §5, §6, §7, §8, §9, §10, §11

Series [4] has as its system HeLa cells (human HPV-positive cervical carcinoma cells). Description: Clonogenicity test on HeLa cells (with Bliss additivity model). Format: cell-based. The protocol:
as §1
The HeLa cells contained 10-50 copies of integrated HPV18.
as §2, §3, §4, §5, §6, §7, §8, §9, §10, §11

A further series has as its system viral DNA polymerase. As to conditions: cited from earlier work.
The subject of another series is HeLa xenograft. Description: HeLa xenograft in female nude mice. Format: in vivo. As to conditions: cidofovir i.p. days 1-5, cetuximab i.p. 1 mg/mouse days 1, 4, 7, alone or combined. The protocol:
Unless otherwise indicated, materials and methods are those described in example 1 above. The in vivo experiments were carried out at the Institut Gustave Roussy (94805 Villejuif; France), with the approval of the French Ministry of Agriculture.
10- to 12-week old female nude mice were injected subcutaneously (into the flank) with 2×10^6 live HeLa cells suspended in 100 μL of culture medium without Fetal Calf Serum (FCS) to study tumor growth. […] Tumor volume and weight were monitored twice a week. The mice were sacrificed when the tumor reached ten times the initial volume.

For series [5] the following is noted: cidofovir 3 mg/kg, AIDS patients with CMV retinitis, after 1 hour of infusion; cited from earlier work.
A further series has as its system Me180 xenograft. Description: Me180 xenograft in mice. Format: in vivo. Particulars: cidofovir, cetuximab alone or combined.
In series [6] the test system is H460 cells (human HPV-negative lung carcinoma cells). Description: Clonogenicity test on H460 cells. Format: cell-based. Particulars: H460 (printed H480); cidofovir alone (10 μg/mL, FIG. 4A). The protocol: as §1, §2, §3, §4, §5
Setting [7] is: foscarnet sodium alone 200 μM/mL, listed as Foscarnet.
[8] abbreviates: foscarnet sodium alone 200 μM/mL, listed as Foscarnet sodium.
Where [9] appears, read: erlotinib alone 0.1 μM/mL, listed as Erlotinib.

Turning to “Vectibix®: recombinant, fully human IgG2 kappa monoclonal antibody that binds specifically to the human EGFR”, in series [1], the “incidence of NCI-CTC grade 3-5 adverse reactions” value is reported as 87%; the “patients with dermatologic toxicities” value is 89%; the “patients with severe dermatologic toxicities (NCI-CTC grade 3 and higher)” value was 12%.
With Cidofovir diphosphate, the “fold lower concentration needed to inhibit herpesvirus polymerases than human cellular DNA polymerases” value in the series on herpesvirus polymerases was 8- to 600 fold.
Regarding `O=C(O)P(=O)(O)O` [foscarnet, phosphonoformic acid], the “reduction in clonogenicity compared to the control / Decrease in living cells (%)” value in [2] (setting [7]) is “minus 35%”; in series [2] (setting [8]), 35%; in series [3] (setting [7]), “minus 20%”; in [3] (setting [8]), 20%; in series [4] (setting [7]), “minus 20%”; in series [4] (setting [8]), 20%.
For the compound `Nc1nc2c(ncn2COCCOP(=O)(O)OP(=O)(O)OP(=O)(O)O)c(=O)[nH]1` [Acyclo-GTP, acyclo-guanosine triphosphate], the “times greater affinity for viral than cellular polymerase” value in the series with viral DNA polymerase is listed as “approximately 100 times”.
For the compound `C#Cc1cccc(Nc2ncnc3cc(OCCOC)c(OCCOC)cc23)c1` [erlotinib, N-(3-ethynylphenyl)-6,7-bis(2-methoxyethoxy)-4-quinazolinamine], the “reduction in clonogenicity compared to the control / Decrease in living cells (%)” value in [2] (erlotinib alone 0.1 μM/mL) is given as “minus 50%”; in series [2] (setting [9]), 50%; in series [2] (erlotinib alone 0.5 μM/mL) it was “minus 80%”; in series [2] (erlotinib alone 0.5 μM/mL, listed as Erlotinib), 80%; in series [3] (erlotinib alone 0.1 μM/mL), “minus 10%”; in series [3] (setting [9]), 10%. The “reduction in clonogenicity compared to the control / Decrease in living cells (%)” value is listed as “minus 50%” in series [4] (erlotinib alone 0.1 μM/mL) and 50% in [4] (setting [9]).
Consider `Nc1ccn(C[C@@H](CO)OCP(=O)(O)O)c(=O)n1` [cidofovir, 1-[(S)-3-hydroxy-2-(phophonomethoxy)propyl]cytosine dehydrate], for which, in the series with HeLa xenograft, the “tumor growth (tumor volume) compared to the control group” value is recorded as “does not reduce tumor growth”. Besides, the plasmatic concentration in series [5] was 7.6 ± 1.4 µg/mL. The “tumor growth compared to the control group” value in the series with Me180 xenograft is listed as “does not reduce tumor growth”. For the same compound, the “concentration at which the drug alone had an effect on the cells” value in series [2] (cidofovir alone) is given as “at least 1 μg/mL”. The “reduction in cell survival (clonogenicity) compared to the control” value in series [2] (cidofovir alone 1 μg/mL) is on record as “about 30%”. Besides, the “reduction in clonogenicity compared to the control / Decrease in living cells (%)” value amounted to 40% in [2] (cidofovir alone 5 μg/mL) and 15% in series [4] (cidofovir alone 5 μg/mL). Besides, the “reduction in cell survival compared to the control” value in series [3] (cidofovir alone 1 μg/mL) is given as “about 20%”. In [3] (cidofovir alone 5 μg/mL), the “reduction in cell survival / clonogenicity compared to the control / Decrease in living cells (%)” value is “minus 20%”. Moreover, the “concentration at which the drug alone had an effect on clonogenicity” value in series [4] (cidofovir alone) is listed as “at least 5 μg/mL”. In addition, the “reduction in clonogenicity compared to the control” value in series [4] (cidofovir alone 10 μg/mL) came out at 25%. Also, in series [4] (cidofovir alone at 1 μg/mL), the clonogenic survival result is given as “about 100%”. Further, in [6], the “effect on cell survival” value was “no significant effect”.
